Experimental data from patent publication US20260055107A1, “SERIES OF NITROGEN-CONTAINING BRIDGED HETEROCYCLIC COMPOUNDS AND PREPARATION METHOD THEREFOR” (CMS RESEARCH & DEVELOPMENT PTE. LTD., priority 2022, published 2026).

Legend:
[1] = biological target: human complement Factor B protein (Homo sapiens (Human), UniProt P00751); experiment: Complement human Factor B protein binding test (SPR method); settings: Biacore 8K, 1:1 Binding Kinetics Model
Protocol: Experimental purpose: To detect the kinetic constants and affinity of the binding between the test compounds and human complement Factor B using the SPR method.
1-Ethyl-3-(3-dimethylaminopropyl) carbodiimide hydrochloride (EDC) and N-hydroxysulfosuccinimide sodium salt (NHS) were mixed in a 1:1 ratio, and complement Factor B was diluted to 20 μg/mL in acetic acid solution with a pH of 5.5. Using a biomacromolecule interaction analyzer Biacore 8K, the programmed settings were set to add the EDC/NHS, the FB protein solution and the 1 M ethanolamine-hydrochloric acid solution to the detection plate. The detection plate was placed in the machine detection chamber, and the EDC/NHS mixture, the complement Factor B protein solution and the 1 M ethanolamine-hydrochloric acid solution were sequentially injected onto the surface of the CM5 chip according to the procedure for chip activation, ligand coupling and deactivation. The flow cell 1 of each channel was used as a reference channel for surface activation and deactivation only, without injection of complement Factor B protein solution. All sample stock solutions were diluted with running buffer (PBST), and all samples were serially diluted 2 times in duplicate for 6 points. The prepared sample was transferred to the detection plate according to the program settings and the detection plate was placed in the sample chamber of Biacore 8K. The detection program was run, and the samples were injected into each channel of the chip sequentially according to the program, with a binding time of 120 s, a dissociation time of 600 s and a flow rate of 30 μL/min. The data were analyzed using Biacore Insight Evaluation Software: The data were fitted using a 1:1 Binding Kinetics Model to obtain the binding rate constant (kon), dissociation rate constant (koff) and dissociation equilibrium constant (KD) for binding of each test sample to complement Factor B protein.

[2] = tested on: Caco-2 cells; experiment: In vitro Caco-2 cell permeability test; assay type: in vitro ADME; settings: Caco-2, 2 μM, 120 minutes; for Apparent permeability coefficient: pH 7.40, direction not given; for Efflux ratio: Papp(BA)/Papp(AB)
Protocol: Cell culture was performed using MEM (minimum essential medium) supplemented with 2 mM L-glutamine, 10% fetal bovine serum (FBS), 100 U/mL penicillin-G and 100 μg/mL streptomycin. Cell culture conditions were 37±1° C., 5% CO2 and saturated humidity. When the cells reached a density of 80 to 90%, trypsin (0.05%, w/v)/EDTA (0.02%, w/v) digestion solution was added to digest the cells before seeding the plate. Cells were seeded in BD Falcon Transwell-96 well plates at a seeding density of 1×10^5 cells/cm^2. The cells were incubated in a carbon dioxide incubator for 22 days and then used for transport experiments.
Hank's balanced salt buffer (pH 7.40±0.05) containing 10 mM HEPES was used as the transport buffer in this project. The bidirectional transport of the test compound and the positive drug digoxin was tested at a concentration of 2 μM, with two parallel samples each, and the transport of fenoterol and propranolol from the apical to the basal end (A-B) was tested. The concentration of DMSO in the incubation system was controlled to 1% or less. After loading the sample, the cell plate was incubated at 37±1° C., 5% CO2 and saturated humidity for 120 minutes. All samples were vortexed and centrifuged at 3220 rpm and 20° C. for 20 minutes. The control sample and test sample were diluted in a 1:1 (v/v) ratio with ultrapure water and stored at 4° C., and the analytical tests were performed by liquid chromatography tandem mass spectrometry (LC/MS/MS).
In this study, the liquid chromatography tandem mass spectrometry (LC/MS/MS) method was used to semi-quantitatively analyze the peak area ratios of the test compounds and control samples fenoterol, propranolol and digoxin to the internal standard in the starting solution, receiving solution and administration well supernatant. The apparent permeability coefficient (Papp, cm/s), efflux rate and recovery rate were calculated using the following formula: • (1) Papp=(dCr/dt)×Vr/(A×C0), dCr/dt is the cumulative concentration of the compound at the receiving end per unit time (μM/s); Vr is the volume of the solution at the receiving end (0.075 mL and 0.250 mL for the solution at the apical and basal ends, respectively); A is the relative surface area of the cell monolayer (0.0804 cm^2); C0 is the starting concentration (nM) of the test sample at the administration end or the peak area ratio of the control sample. • (2) Efflux ratio=Papp(BA)/Papp(AB) • (3) Recovery rate (%)=100×[(Vr×Cr)+(Vd×Cd)]/(Vd×C0), C0 is the starting concentration (nM) of the test sample at the administration end or the peak area ratio of the control sample; Vd is the volume at the administration end (0.075 mL on the apical side and 0.250 mL on the basal side); Cd and Cr are the final concentration (nM) of the test sample or the peak area ratio of the control sample at the administration and receiving ends, respectively.

[3] = Plasma protein binding rate test (equilibrium dialysis), human; assay type: in vitro ADME; settings: 2 μM, equilibrium dialysis 37° C. 4 hours
Protocol: (§1) Experimental purpose: To evaluate the protein binding rate of the compounds of the present disclosure in the plasma of CD-1 mice, SD rats, beagle dogs, cynomolgus monkeys and humans using equilibrium dialysis.
(§2) The test compounds were diluted with dialysis buffer into the plasma of the above five species to prepare samples with a final concentration of 2 μM. The samples were then added to a 96-well equilibrium dialysis device and dialyzed using phosphate buffered saline solution at 37° C. for 4 hours. Warfarin was used as a control compound in the experiment. The concentration of the test compounds and warfarin in the plasma and buffer was determined using LC-MS/MS. The free fraction of the compound was calculated by the following formula: PPB_Unbound (%)=100*FC/TC, where FC is the concentration of the compound at the buffer end of the dialysis plate; TC is the concentration of the compound at the plasma end of the dialysis plate; To is the concentration of the compound in the plasma sample at time zero.

[4] = Plasma protein binding rate test (equilibrium dialysis), dog; assay type: in vitro ADME, beagle dogs; settings: 2 μM, equilibrium dialysis 37° C. 4 hours, beagle dog plasma
Protocol: as §1, §2

[5] = Plasma protein binding rate test (equilibrium dialysis), rat; assay type: in vitro ADME, SD rats; settings: 2 μM, equilibrium dialysis 37° C. 4 hours, SD rat plasma
Protocol: as §1, §2

[6] = Plasma protein binding rate test (equilibrium dialysis), cynomolgus monkey; assay type: in vitro ADME, cynomolgus monkeys; settings: 2 μM, equilibrium dialysis 37° C. 4 hours
Protocol: as §1, §2

[7] = In vitro liver microsomal stability test; assay type: in vitro ADME, human; settings: 1 μM compound, 0.5 mg/mL liver microsomes, NADPH
Protocol: Liver microsomes: purchased from Corning or Xenotech, stored in a −80° C. refrigerator; reduced nicotinamide adenine dinucleotide phosphate (NADPH), supplier: Chem-Impex International, Cat. No.: 00616; control compounds: testosterone, diclofenac, propafenone.
Stock solution: 10 mM DMSO solution; preparation of working concentration: The stock solution was diluted to 100 μM using 100% acetonitrile (organic phase content: 99% acetonitrile, 1% DMSO).
Two 96-well incubation plates were prepared and named as T60 incubation plate and NCF60 incubation plate.
445 μL of microsomal working solution (liver microsomal protein concentration of 0.56 mg/mL) was added to both the T60 incubation plate and the NCF60 incubation plate. The two incubation plates were pre-incubated in a 37° C. water bath for approximately 10 minutes.
After pre-incubation was completed, 5 μL of the test compound or control compound working solution was added to both the T60 incubation plate and the NCF60 incubation plate and mixed well. 50 μL of potassium phosphate buffer per well was added to the NCF60 incubation plate to initiate the reaction. 180 μL of termination solution (acetonitrile solution containing 200 ng/mL tolbutamide and 200 ng/mL labetalol) and 6 μL of NADPH regeneration system working solution were added to a TO termination plate. […]

[8] = Pharmacokinetic study in rats; assay type: in vivo, Male SD rats; settings: rat; for F: PO 10 mpk vs IV 1 mpk
Protocol: Male SD rats (6 to 8 weeks old, weighing 200 to 300 g) were selected.
Injection administration (IV) was carried out at a dose of 1 mpk and a concentration of 0.20 mg/mL with a vehicle of 20% PEG400/10% solutol/70% water. Oral administration (PO) was carried out at a dose of 10 mpk and a concentration of 1 mg/mL with a vehicle of 20% PEG400/10% solutol/70% water.
Sample collection: 0.03 mL of blood samples were collected by puncture of the saphenous vein in experimental animals at each time point, and the actual blood collection time was recorded.
All blood samples were added to commercial 1.5 mL EDTA-K2 anticoagulant tubes. After blood sample collection, DDV was added into the plasma matrix as a stabilizer, wherein the ratio of plasma to Dichlorvos (DDV) solution was 40:1. The DDV solution was a 40 mM DDV solution in acetonitrile/water (1:1). Within half an hour, the mixture was centrifuged at 4° C. and 3000 g for 10 minutes. The supernatant plasma was aspirated, quickly placed in dry ice and stored in a −80° C. refrigerator for LC-MS/MS analysis.
A non-compartmental model in Phoenix WinNonlin 6.3 pharmacokinetic software was used to process the plasma concentration data. The pharmacokinetic parameters were calculated using the linear-log trapezoidal method. C0: concentration needed immediately after intravenous injection; Cmax: the highest plasma drug concentration after administration; Tmax: time needed to reach drug peak concentration after administration; T1/2: time needed for plasma drug concentration to decrease by half; Vdss: apparent volume of distribution, refers to the proportional constant between the amount of drug in the body and the plasma drug concentration when the drug reaches dynamic equilibrium in the body. Cl: clearance rate, refers to the apparent volume of distribution of the drug cleared from the body per unit time; AUC0-last: area under the drug time curve, refers to the area surrounded by the plasma drug concentration curve against the time axis; F: bioavailability.

[9] = Plasma protein binding rate test (equilibrium dialysis), mouse; assay type: in vitro ADME, CD-1 mice; settings: 2 μM, equilibrium dialysis 37° C. 4 hours, CD-1 mouse plasma
Protocol: as §1, §2

Chain of human complement Factor B protein (P00751 26-764): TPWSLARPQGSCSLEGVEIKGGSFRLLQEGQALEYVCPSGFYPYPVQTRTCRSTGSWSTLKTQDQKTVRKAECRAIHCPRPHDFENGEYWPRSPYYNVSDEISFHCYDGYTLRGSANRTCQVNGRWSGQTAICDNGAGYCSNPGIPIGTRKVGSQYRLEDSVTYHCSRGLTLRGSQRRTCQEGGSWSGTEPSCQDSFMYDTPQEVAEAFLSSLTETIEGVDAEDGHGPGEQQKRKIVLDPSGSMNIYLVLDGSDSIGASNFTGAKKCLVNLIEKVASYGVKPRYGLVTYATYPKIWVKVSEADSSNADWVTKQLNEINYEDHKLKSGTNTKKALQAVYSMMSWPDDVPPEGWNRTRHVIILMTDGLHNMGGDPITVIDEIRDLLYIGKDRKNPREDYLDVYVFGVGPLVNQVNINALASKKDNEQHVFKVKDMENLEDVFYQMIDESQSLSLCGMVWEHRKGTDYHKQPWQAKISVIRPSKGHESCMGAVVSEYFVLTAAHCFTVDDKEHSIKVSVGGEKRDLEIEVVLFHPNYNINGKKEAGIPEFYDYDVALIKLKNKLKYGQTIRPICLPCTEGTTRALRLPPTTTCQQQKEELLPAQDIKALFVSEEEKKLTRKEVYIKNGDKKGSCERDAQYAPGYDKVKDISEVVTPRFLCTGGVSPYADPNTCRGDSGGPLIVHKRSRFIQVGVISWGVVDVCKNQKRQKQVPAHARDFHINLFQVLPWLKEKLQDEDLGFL

Structure (SMILES)	Kd [1] [nM]	Apparent permeability coefficient [2]	Efflux ratio [2]	Plasma protein binding (PPB) unbound, Human (H) [3] [%]	Plasma protein binding (PPB) unbound, Dog (D) [4] [%]	Plasma protein binding (PPB) unbound, Rat (R) [5] [%]	Plasma protein binding (PPB) unbound, Cynomolgus monkey (C) [6] [%]	Human liver microsomal stability CLint [7] [mL/min/kg]	AUC0-last ([8]; IV 1 mpk) [µM·h]	C0 ([8]; IV 1 mpk) [µM]	Cl ([8]; IV 1 mpk) [mL/min/kg]	T1/2 ([8]; IV 1 mpk) [h]	Vdss ([8]; IV 1 mpk) [L/kg]	AUC0-last ([8]; PO 10 mpk) [µM·h]	Cmax ([8]; PO 10 mpk) [µM]	T1/2 ([8]; PO 10 mpk) [h]	Tmax ([8]; PO 10 mpk) [h]	F [8] [%]	Plasma protein binding (PPB) unbound, Mouse (M) [9] [%]
CCSC1CC2CCC(c3ccc(C(=O)O)cc3)(C1)N2Cc1c(OC)cc(C)c2[nH]ccc12.O=CO (single isomer, unassigned) [Compound 1B]	< 100	1.19 10^−6 cm/s	26.1	13.3	16.2	11.6	17.4	<15											12.5
CCS[C@H]1C[C@H]2CC[C@@](c3ccc(C(=O)O)cc3)(C1)N2Cc1c(OC)cc(C)c2[nH]ccc12 [Compound 1A]	< 100																		

Other lines, results leading:

Kd [1] [nM]	Apparent permeability coefficient [2]	Efflux ratio [2]	Plasma protein binding (PPB) unbound, Human (H) [3] [%]	Plasma protein binding (PPB) unbound, Dog (D) [4] [%]	Plasma protein binding (PPB) unbound, Rat (R) [5] [%]	Plasma protein binding (PPB) unbound, Cynomolgus monkey (C) [6] [%]	Human liver microsomal stability CLint [7] [mL/min/kg]	AUC0-last ([8]; IV 1 mpk) [µM·h]	C0 ([8]; IV 1 mpk) [µM]	Cl ([8]; IV 1 mpk) [mL/min/kg]	T1/2 ([8]; IV 1 mpk) [h]	Vdss ([8]; IV 1 mpk) [L/kg]	AUC0-last ([8]; PO 10 mpk) [µM·h]	Cmax ([8]; PO 10 mpk) [µM]	T1/2 ([8]; PO 10 mpk) [h]	Tmax ([8]; PO 10 mpk) [h]	F [8] [%]	Plasma protein binding (PPB) unbound, Mouse (M) [9] [%]	Structure (SMILES)
< 100																			COc1cc(C)c2[nH]ccc2c1CN1[C@@H]2CC[C@@]1(c1ccc(C(=O)O)cc1)C[C@@H](SC)C2 [Compound 2A]
< 100	1.21 10^−6 cm/s	22.6	15.2	25.6	14.1	28.5	<15	10.573	6.2	3.5	2.06	0.53	33.029	7.83	9.90	0.50	31.2	19.1	COc1cc(C)c2[nH]ccc2c1CN1C2CCC1(c1ccc(C(=O)O)cc1)CC(C1CC1)C2 (single isomer, unassigned) [Compound 3B]
< 100	1.56 10^−6 cm/s	15.8	21.7	31.7	15.1	25.6		5.645	5.81	6.5	1.16	0.55	28.425	9.03	11.7	0.50	50.4	22.2	COc1cc(C)c2[nH]ccc2c1CN1C2CCC1(c1ccc(C(=O)O)cc1)CC(SC)C2.O=CO (single isomer, unassigned) [Compound 2B]
< 100																			COc1cc(C)c2[nH]ccc2c1CN1[C@@H]2CC[C@@]1(c1ccc(C(=O)O)cc1)C[C@H](C1CC1)C2 [Compound 3A]
